Results taken from PubChem BioAssay AID292 (DTP/NCI, 2004).
Values joined by “and” are separate entries in the source; they are usually repeats but may differ in a detail not shown here. Equal values may be shown once. Inconclusive results and toxic doses are left out.

Test system: B6C3F1 mice, ip Sarcoma M5076, median survival T/C
Experiment: NCI In Vivo Anticancer Drug Screen. Data for tumor model Sarcoma M5076 (intraperitoneal) in B6C3F1 mice
Settings: endpoint: median survival time, higher = longer survival
Procedure, shortened: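 The readout is a ratio of survival in drug-treated animals to survival in animals given vehicle alone, taken in mice bearing a transplanted tumour line.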

[1] = dose: 25.0 mg/kg/injection, schedule: Q04DX004 (ip), vehicle: Klucel (hydroxypropylcellulose) (HPC)
[2] = dose: 50.0 mg/kg/injection, schedule: Q04DX004 (ip), vehicle: Klucel (hydroxypropylcellulose) (HPC)
[3] = dose: 100.0 mg/kg/injection, schedule: Q04DX004 (ip), vehicle: Klucel (hydroxypropylcellulose) (HPC)
[4] = dose: 200.0 mg/kg/injection, schedule: Q04DX004 (ip), vehicle: Klucel (hydroxypropylcellulose) (HPC)
[5] = dose: 25.0 mg/kg/injection, schedule: Q04DX004 (ip), vehicle: saline
[6] = dose: 50.0 mg/kg/injection, schedule: Q04DX004 (ip), vehicle: saline
[7] = dose: 25.0 mg/kg/injection, schedule: Q04DX004 (ip), vehicle: saline with Tween-80
[8] = dose: 50.0 mg/kg/injection, schedule: Q04DX004 (ip), vehicle: saline with Tween-80
[9] = dose: 100.0 mg/kg/injection, schedule: Q04DX004 (ip), vehicle: saline with Tween-80
[10] = dose: 100.0 mg/kg/injection, schedule: Q04DX004 (ip), vehicle: saline
[11] = dose: 200.0 mg/kg/injection, schedule: Q04DX004 (ip), vehicle: saline
[12] = dose: 400.0 mg/kg/injection, schedule: Q04DX004 (ip), vehicle: Klucel (hydroxypropylcellulose) (HPC)

O=NNc1cccnc1 was tested, and the T/C (dose: 12.5 mg/kg/injection, schedule: Q04DX004 (ip), vehicle: water) was 99 % of control and 119 % of control, the T/C (dose: 25.0 mg/kg/injection, schedule: Q04DX004 (ip), vehicle: water) was 110 % of control and 113 % of control and the T/C (dose: 50.0 mg/kg/injection, schedule: Q04DX004 (ip), vehicle: water) was 97 % of control and 110 % of control. The T/C (dose: 100.0 mg/kg/injection, schedule: Q04DX004 (ip), vehicle: water) was 124 % of control.
COc1cc2cc(c1Cl)N(C)C(=O)C[C@H](OC(=O)[C@H](C)N(C)C(C)=O)[C@]1(C)O[C@H]1[C@H](C)[C@@H]1C[C@@](O)(NC(=O)O1)[C@H](OC)C=C/C=C(\C)C2 was tested, and the T/C (dose: 18.75 micrograms/kg/injection, schedule: Q04DX004 (ip), vehicle: saline) was 101 % of control, the T/C (dose: 37.5 micrograms/kg/injection, schedule: Q04DX004 (ip), vehicle: saline) was 103 % of control and 119 % of control and the T/C (dose: 37.5 micrograms/kg/injection, schedule: Q04DX005 (ip), vehicle: saline) was 108 % of control and 217 % of control. The T/C (dose: 75.0 micrograms/kg/injection, schedule: Q04DX004 (ip), vehicle: saline) was 112 % of control, the T/C (dose: 75.0 micrograms/kg/injection, schedule: Q04DX005 (ip), vehicle: saline) was 119 % of control and the T/C (dose: 150.0 micrograms/kg/injection, schedule: Q04DX004 (ip), vehicle: saline) was 114 % of control. The T/C (dose: 300.0 micrograms/kg/injection, schedule: Q04DX004 (ip), vehicle: saline) was 114 % of control.
For CC(=O)OC1OC(=O)C(C)(C(C)=O)C1C (stereo not given), the T/C (dose: 2.5 mg/kg/injection, schedule: Q04DX004 (ip), vehicle: distilled water + alcohol) was 100 % of control, the T/C (dose: 5.0 mg/kg/injection, schedule: Q04DX004 (ip), vehicle: distilled water + alcohol) was 105 % of control and the T/C (dose: 10.0 mg/kg/injection, schedule: Q04DX004 (ip), vehicle: distilled water + alcohol) was 104 % of control. For the same compound, the T/C (dose: 20.0 mg/kg/injection, schedule: Q04DX004 (ip), vehicle: distilled water + alcohol) was 104 % of control and the T/C (dose: 40.0 mg/kg/injection, schedule: Q04DX004 (ip), vehicle: distilled water + alcohol) was 95 % of control.
With CCNc1nc(NC(C)C)nc(-c2ccncc2)n1 the T/C [1] was 93 % of control, the T/C [2] was 95 % of control and the T/C [3] was 95 % of control. For the same compound, the T/C [4] was 95 % of control.
With OCCN1CCN(CC/C=C2/c3ccccc3Sc3ccc(C(F)(F)F)cc32)CC1 the T/C (dose: 6.25 mg/kg/injection, schedule: Q04DX004 (ip), vehicle: saline) was 108 % of control, the T/C (dose: 12.5 mg/kg/injection, schedule: Q04DX004 (ip), vehicle: saline) was 100 % of control and the T/C [5] was 108 % of control. The T/C [6] was 112 % of control.
O=C1CN2CCN3CC(=O)NC(=O)[C@H]3[C@@H]2C(=O)N1 was tested, and the T/C (dose: 31.0 mg/kg/injection, schedule: Q04DX004 (ip), vehicle: saline with Tween-80) was 93 % of control, the T/C (dose: 62.0 mg/kg/injection, schedule: Q04DX004 (ip), vehicle: saline with Tween-80) was 94 % of control and the T/C (dose: 125.0 mg/kg/injection, schedule: Q04DX004 (ip), vehicle: saline with Tween-80) was 93 % of control. For the same compound, the T/C (dose: 250.0 mg/kg/injection, schedule: Q04DX004 (ip), vehicle: saline with Tween-80) was 100 % of control and the T/C (dose: 500.0 mg/kg/injection, schedule: Q04DX004 (ip), vehicle: saline with Tween-80) was 98 % of control.
For CCCCCCN1CCN(Cc2ccc(N(CC)CC)cc2)C(=O)C1=O, the T/C [1] was 95 % of control and the T/C [2] was 107 % of control.
For S=c1sc(-c2ccc(Cl)cc2)nn1CSc1nc2ccccc2[nH]1, the T/C (dose: 37.5 mg/kg/injection, schedule: Q04DX004 (ip), vehicle: saline with Tween-80) was 105 % of control, the T/C (dose: 75.0 mg/kg/injection, schedule: Q04DX004 (ip), vehicle: saline with Tween-80) was 98 % of control and the T/C (dose: 150.0 mg/kg/injection, schedule: Q04DX004 (ip), vehicle: saline with Tween-80) was 96 % of control. The T/C (dose: 300.0 mg/kg/injection, schedule: Q04DX004 (ip), vehicle: saline with Tween-80) was 95 % of control.
For Cc1ccc(-c2nnc3cc(C)n4nnnc4n23)cc1, the T/C (dose: 17.5 mg/kg/injection, schedule: Q04DX004 (ip), vehicle: Klucel (hydroxypropylcellulose) (HPC)) was 97 % of control, the T/C (dose: 35.0 mg/kg/injection, schedule: Q04DX004 (ip), vehicle: Klucel (hydroxypropylcellulose) (HPC)) was 99 % of control and the T/C (dose: 70.0 mg/kg/injection, schedule: Q04DX004 (ip), vehicle: Klucel (hydroxypropylcellulose) (HPC)) was 99 % of control. For the same compound, the T/C (dose: 140.0 mg/kg/injection, schedule: Q04DX004 (ip), vehicle: Klucel (hydroxypropylcellulose) (HPC)) was 101 % of control and the T/C (dose: 280.0 mg/kg/injection, schedule: Q04DX004 (ip), vehicle: Klucel (hydroxypropylcellulose) (HPC)) was 97 % of control.
With c1ccc(P(CCNCCP(c2ccccc2)c2ccccc2)c2ccccc2)cc1 the T/C [7] was 88 % of control, the T/C [8] was 92 % of control and the T/C [9] was 90 % of control.
For CCN(CC)CCn1c2c(c3ccc(OC)cc31)CCN1CC3CC(OC(=O)c4cc(OC)c(OC)c(OC)c4)C(OC)C(C(=O)OC)C3CC21 (stereo not given), the T/C [5] was 105 % of control, the T/C [6] was 97 % of control and the T/C [10] was 97 % of control. The T/C [11] was 86 % of control.
With N#CC1C(=O)NC(=S)NC1c1ccc2c(c1)CCC2 (stereo not given) the T/C [6] was 103 % of control, the T/C [10] was 97 % of control and the T/C [11] was 102 % of control.
For O=[N+]([O-])c1c(O)c(CNCCCO)cc(CNCCCO)c1O, the T/C (dose: 6.25 mg/kg/injection, schedule: Q04DX004 (ip), vehicle: suspension in saline) was 98 % of control, the T/C (dose: 12.5 mg/kg/injection, schedule: Q04DX004 (ip), vehicle: suspension in saline) was 99 % of control and the T/C (dose: 25.0 mg/kg/injection, schedule: Q04DX004 (ip), vehicle: suspension in saline) was 101 % of control. The T/C (dose: 50.0 mg/kg/injection, schedule: Q04DX004 (ip), vehicle: suspension in saline) was 118 % of control.
O=C1CN(CO)C(=O)N1CO was tested, and the T/C [1] was 100 % of control, the T/C [2] was 104 % of control and the T/C [3] was 97 % of control. For the same compound, the T/C [4] was 114 % of control and the T/C [12] was 114 % of control.
In the case of COc1c2c(c(O)c3c4c(c(C)cc13)C1OC3(C(OC)OC5CC(C)(O)C(OC6CC(C)(O)C(O)C(C)O6)C(C)O5)OC1C(OC)(O4)C31CO1)C(=O)C(O)CC2OC1CC(C)(O)C(OC(C)=O)C(C)O1 (stereo not given), the T/C (dose: 0.03 mg/kg/injection, schedule: Q04DX004 (ip), vehicle: saline) is reported as 120 % of control, the T/C (dose: 15.0 micrograms/kg/injection, schedule: Q04DX004 (ip), vehicle: saline) is reported as 105 % of control and the T/C (dose: 30.0 micrograms/kg/injection, schedule: Q04DX004 (ip), vehicle: saline) is reported as 115 % of control. The T/C (dose: 60.0 micrograms/kg/injection, schedule: Q04DX004 (ip), vehicle: saline) was 111 % of control and 118 % of control, the T/C (dose: 120.0 micrograms/kg/injection, schedule: Q04DX004 (ip), vehicle: saline) was 114 % of control and the T/C (dose: 240.0 micrograms/kg/injection, schedule: Q04DX004 (ip), vehicle: saline) was 115 % of control.
In the case of O=C(O)c1ccc(NC(=O)C2C(=O)C(=O)N(c3ccc(C(=O)O)cc3)C2=O)cc1 (stereo not given), the T/C (dose: 50.0 mg/kg/injection, schedule: Q04DX004 (ip), vehicle: Klucel + Tween-80) is reported as 108 % of control, the T/C (dose: 100.0 mg/kg/injection, schedule: Q04DX004 (ip), vehicle: Klucel + Tween-80) is reported as 100 % of control and the T/C (dose: 200.0 mg/kg/injection, schedule: Q04DX004 (ip), vehicle: Klucel + Tween-80) is reported as 91 % of control. For the same compound, the T/C (dose: 400.0 mg/kg/injection, schedule: Q04DX004 (ip), vehicle: Klucel + Tween-80) was 97 % of control.
In the case of CCOC(=O)Cn1nc2oc(=O)c(CCN3CCN(c4ccccc4OC)CC3)c(C)c2c1C, the T/C [2] is reported as 103 % of control, the T/C [3] is reported as 103 % of control and the T/C [4] is reported as 90 % of control. For the same compound, the T/C [12] was 94 % of control and the T/C (dose: 800.0 mg/kg/injection, schedule: Q04DX004 (ip), vehicle: Klucel (hydroxypropylcellulose) (HPC)) was 89 % of control.
For CCC(CC)C(=O)NCC(=O)NO, the T/C [7] was 93 % of control, the T/C [8] was 93 % of control and the T/C [9] was 93 % of control. For the same compound, the T/C (dose: 200.0 mg/kg/injection, schedule: Q04DX004 (ip), vehicle: saline with Tween-80) was 97 % of control and the T/C (dose: 400.0 mg/kg/injection, schedule: Q04DX004 (ip), vehicle: saline with Tween-80) was 92 % of control.
Nc1ncn(C2OC(CO)C(O)C2O)c(=O)n1 (stereo not given) was tested, and the T/C (dose: 0.38 mg/kg/injection, schedule: Q01DX009 (ip), vehicle: saline) was 100 % of control and 101 % of control, the T/C (dose: 0.75 mg/kg/injection, schedule: Q01DX009 (ip), vehicle: saline) was 109 % of control and 114 % of control and the T/C (dose: 1.5 mg/kg/injection, schedule: Q01DX009 (ip), vehicle: saline) was 112 % of control and 115 % of control. For the same compound, the T/C (dose: 25.0 mg/kg/injection, schedule: Q01DX009 (ip), vehicle: saline) was 150 % of control, the T/C (dose: 50.0 mg/kg/injection, schedule: Q01DX009 (ip), vehicle: saline) was 155 % of control and 159 % of control and the T/C (dose: 100.0 mg/kg/injection, schedule: Q01DX009 (ip), vehicle: saline) was 172 % of control.
